Experimental data published in PMC9137698, “Development of New Antimycobacterial Sulfonyl Hydrazones and 4-Methyl-1,2,3-thiadiazole-Based Hydrazone Derivatives” (Antibiotics, 2022).
In brackets after ≈: the same amount, converted by molar mass. Where two headings read alike, the source gives them in different places.

Experiments:
[1] = tested on: M. tuberculosis strain H37Rv; assay: EUCAST broth microdilution MIC determination; type: cell-based, Mycobacterium tuberculosis
[2] = tested on: HEK-293 (human embryonic kidney 293) cells; assay: MTT cytotoxicity assay, HEK-293; type: cell-based; details: for selectivity index SI, HEK-293 / selectivity indices (SI): ratio of IC50 to MIC; for IC50: Homo sapiens; for selectivity indices (SI): both cell lines HEK-293 and CCL-1
Experimental: (§1) The cytostatic activity of the investigational compounds was determined using a standard MTT-based colorimetric assay for evaluating cell viability. HEK-293 and CCL-1 cells were harvested and seeded (100 µL/well) in 96-well plates at a density of 3 × 10^5. Following a 24 h incubation, the cells were treated with serial dilutions of the tested compounds in the concentration range of 200.0–12.5 µM. Following an exposure time of 72 h, a filter-sterilized MTT substrate solution (5 mg/mL in PBS) was added to each well of the culture plate. A further 1–4 h incubation allowed the formation of purple insoluble precipitates of the formazan dye. The latter was dissolved in an isopropyl alcohol solution containing 5% formic acid for absorbance measurement at 550 nm. The collected absorbance values were blanked against MTT-and isopropanol solution and normalized to the mean value of the untreated control (100% cell viability).
(§2) Semi-logarithmic “dose-response” curves were computed using nonlinear regression in GraphPad Prism® 8.0. The antiproliferative potential of the studied compounds was rated according to the calculated half-maximal inhibitory concentrations (IC50 values).

[3] = tested on: CCL-1 mouse fibroblast cell line; assay: MTT cytotoxicity assay, CCL-1; type: cell-based; details: for selectivity index SI, CCL-1: ratio of IC50 to MIC; for IC50: Mus musculus
Experimental: as §1, §2

[4] = M. tuberculosis strain H37Rv, lowest concentration without visual growth, read-out: MIC a
[5] = Mycobacterium tuberculosis, H37RV, M. tuberculosis strain H37Rv, lowest concentration without visual growth, read-out: MIC a
[6] = Mycobacterium tuberculosis, H37RV, read-out: MIC a (µM)
[7] = HEK293, 72 h, read-out: IC50 (µM) c HEK-293
[8] = CCL-1, 72 h, read-out: IC50 (µM) b CCL-1

In the case of `Cc1nnsc1C(=O)N/N=C/c1c(Cl)c2ccccc2oc1=O` [3a, N’-[(E)-(4-chloro-2-oxo-2H-1-benzopyran-3-yl)methylidene]-4-methyl-1,2,3-thiadiazole-5-carbohydrazide], the MIC [1, 4] is reported as 0.3914 µM (≈ 0.137 µg/mL) and the MIC [1, 5] is reported as under 0.4 µM.
With `COc1ccc2c(c1)c(/C=N/NC(=O)c1snnc1C)cn2C` [3b, N’-[(E)-(5-methoxy-1-methyl-1H-indol-3-yl)methylidene]-4-methyl-1,2,3-thiadiazole-5-carbohydrazide] the MIC [1, 4] was 0.3294 µM (≈ 0.108 µg/mL) and the MIC [1, 5] was under 0.4 µM.
`Cc1nnsc1C(=O)N/N=C/c1c[nH]c2ccc(OCc3ccccc3)cc12` [3c, N’-((E)-[5-(benzyloxy)-1H-indol-3-yl]methylidene)-4-methyl-1,2,3-thiadiazole-5-carbohydrazide] was tested, and the “selectivity index SI, HEK-293” value ([2]; as assigned in running text) was 2242 and the “selectivity index SI, CCL-1” value ([3]; as assigned in running text) was 4093.
In the case of `COc1cc(/C=N/NC(=O)c2snnc2C)ccc1O` [3d, N’-[(E)-(4-hydroxy-3-methoxyphenyl)methylidene]-4-methyl-1,2,3-thiadiazole-5-carbohydrazide], the MIC [1, 5] is reported as under 0.1 µM, the IC50 ([2]; HEK293, MTT, as assigned in running text, read-out: IC50, human embryonic kidney cells HEK-29) is reported as 257 µM and the “selectivity index SI, HEK-293” value ([2]; as assigned in running text) is reported as 3516. The IC50 ([3]; Fibroblast, MTT, as assigned in running text, read-out: IC50, mouse fibroblast cells CCL-1) was 218 µM and the “selectivity index SI, CCL-1” value ([3]; as assigned in running text) was 2979.
Work on `COc1ccc2c(c1)c(/C=N/NS(=O)(=O)c1ccccc1)cn2C` [5b, N’-[(E)-(5-methoxy-1-methyl-1H-indol-3-yl)methylidene]benzenesulfonohydrazide] yielded an MIC [1, 4] of 0.2027 µM (≈ 0.0696 µg/mL) and an MIC [1, 5] of under 0.4 µM.
`O=S(=O)(N/N=C/c1c[nH]c2ccc(OCc3ccccc3)cc12)c1ccccc1` [5c] was tested, and the MIC [1, 6] was 0.343 µM (≈ 0.139 µg/mL), the IC50 [2, 7] was 32.3 ± 1.5 µM and the IC50 [3, 8] was 321 ± 16.2 µM.
`O=S(=O)(N/N=C/c1c[nH]c2ccc(Cl)cc12)c1ccccc1` [5d, N’-[(E)-(5-chloro-1H-indol-3-yl)methylidene]benzenesulfonohydrazide] showed an MIC [1, 5] of 0.167 µM (≈ 0.0557 µg/mL).
`COc1ccc2[nH]cc(/C=N/NS(=O)(=O)c3ccccc3)c2c1` [5e, N’-[(E)-(5-methoxy-1H-indol-3-yl)methylidene]benzenesulfonohydrazide] gave an MIC [1, 5] of 0.165 µM (≈ 0.0542 µg/mL).
`O=[N+]([O-])c1ccccc1/C=N/NS(=O)(=O)c1ccccc1` [5f, N’-[(E)-(2-nitrophenyl)methylidene]benzenesulfonohydrazide] gave an MIC [1, 5] of 0.305 µM (≈ 0.0932 µg/mL).
In the case of `O=[N+]([O-])c1ccc(/C=N/NS(=O)(=O)c2ccccc2)cc1` [5g, N’-[(E)-(4-nitrophenyl)methylidene]benzenesulfonohydrazide], the MIC [1, 5] is reported as under 0.1 µM and the “selectivity indices (SI)” value [2] is reported as over 1000.
In the case of `O=S(=O)(N/N=C/c1ccc(Cl)cc1)c1ccccc1` [5i, N’-[(E)-(4-chlorophenyl)methylidene]benzenesulfonohydrazide], the MIC [1, 6] is reported as 0.147 µM (≈ 0.0434 µg/mL), the IC50 [2, 7] is reported as 100 ± 9.3 µM and the IC50 [3, 8] is reported as 131 ± 11.4 µM.
`COc1ccc(/C=N/NS(=O)(=O)c2ccccc2)cc1OC` [5j, N’-[(E)-(3,4-dimethoxyphenyl)methylidene]benzenesulfonohydrazide] was tested, and the MIC [1, 6] was 0.321 µM (≈ 0.103 µg/mL), the IC50 [2, 7] was 47.4 ± 6.8 µM and the IC50 [3, 8] was 83.5 ± 7 µM.
For `O=S(=O)(N/N=C/C=C/c1ccccc1)c1ccccc1` [5k, N’-[(1E,2E)-3-phenylprop-2-en-1-ylidene]benzenesulfonohydrazid], the MIC [1, 5] was under 0.1 µM, the “selectivity index SI, HEK-293” value ([2]; as assigned in running text) was 3380 and the “selectivity indices (SI)” value [2] was over 1000. The “selectivity index SI, CCL-1” value ([3]; as assigned in running text) was 2216.
For `NNC(=O)c1ccncc1` [INH, isoniazid, reference compound], the MIC [1, 5] was 0.0343 µM (≈ 0.0047 µg/mL).
With “N’-[(E)-(3-hydroxy-4-methoxyphenyl)methylidene]benzenesulfonohydrazide [5h]” the MIC [1, 4] was 0.3203 µM.
